# Reference: patent US10869931B2, “Polyethylene glycol-modified angiogenesis inhibitor HM-1 and application thereof” (NANJING ANJI BIOLOGICAL TECHNOLOGY CO.,LTD, priority 2016, dated 2020)
# Where no end group is shown, it is not given here.
# What was measured:
# Melanoma tumor cells = experiment: MTT proliferation inhibition, melanoma cells; format: cell-based, human; design: concentration or dose not given beside the values; settings: 48 h
# Protocol: (§1) The activity of mPEG-HM-1 to inhibit the growth of various tumor cells was examined by MTT assay. The tumor cells were cultured to a concentration of 90% or more in a 37° C., 5% CO2 incubator and collected by trypsinization. The cells were resuspended in the culture medium and counted under a microscope to adjust the cell concentration to 2×10^4 cells/mL, the cell suspension was inoculated into a 96-well plate at 100 μL/well and incubated overnight at 37° C. in a 5% CO2 incubator. mPEG-HM-1 was diluted with the culture solution to each predetermined concentration. Docetaxel is diluted to the final concentration with the culture medium. After the cells were fully attached, each dilution was added to a 96-well plate (100 μL/well). The mPEG-HM-1 dilution was added as a drug-administered group, and docetaxel was added as a positive control group, and a culture solution without any drug was used as a negative control group. Incubate for 48 h at 37° C. in a 5% CO2 incubator. 5 mg/mL of MTT was added to a 96-well plate at 20 μL per well, and incubation was continued for 4 hours. The medium was aspirated, dissolved in 150 μL of DMSO per well, and gently mixed by shaking for 10 min. The absorbance was measured at a measurement wavelength of 570 nm and a reference wavelength of 630 nm using a microplate reader, and the rate of growth inhibition (proliferation inhibition, PI) was calculated. The formula is as follows: PI (%)=1−administration group/negative group
# (§2) The test was repeated 3 times independently, and the results obtained by the test were expressed as mean±SD, and the test results are shown in Table 15 to Table 18.
# [1] = tested on: Ovarian cancer tumor cells; experiment: MTT proliferation inhibition, ovarian cancer cells; format: cell-based, human; design: concentration or dose not given beside the values; settings: 48 h
# Protocol: as §1, §2
# mouse spleen lymphocytes = experiment: ConA-stimulated mouse spleen lymphocyte proliferation (MTT); format: cell-based; settings: ConA 5 μg/mL, 48 h
# Protocol: Tris-NH4Cl was used to break the red blood cells, and the cells were allowed to stand in an ice water bath for 4 min, centrifuged (1000 rpm×5 min), the supernatant was discarded, and the cells were washed twice with sterile PBS. Finally, cells were suspended in RPMI 1640 medium (5 mL) supplemented with 10% calf serum, counted, adjusted to a cell concentration of 5×10^6/mL, and cultured in a 96-well culture plate The test group consisted of blank control group, concanavalin A (ConA) group, dexamethasone (Dex) group (0.02 mg/mL) and mPEG-HM-1 group. […] The cells were cultured in a 37° C. cell culture chamber for 48 h. After the completion of the culture, 20 μL of MTT was added to each well, and the culture was continued for 4 h. Finally, all the solutions in each well were discarded, 100 μL of DMSO was added to each well, and the mixture was shaken and detected by a microplate reader OD value at 570 nm, 5 parallels per hole.
# Lung cancer tumor cells = experiment: MTT proliferation inhibition, lung cancer cells; format: cell-based, human; design: concentration or dose not given beside the values; settings: 48 h
# Protocol: as §1, §2
# [2] = tested on: IL-1β production by mouse peritoneal macrophages; experiment: IL-1β production by mouse peritoneal macrophages (ELISA); format: cell-based; settings: 48 h
# Protocol: (1) IL-1β production: mice were intraperitoneally injected with 1 mL of broth (containing 6%) starch, and three days later, the mouse peritoneal macrophages were aseptically taken, washed twice with 1640 medium, and the cell concentration was adjusted to 2×10^6 cells/mL, inject into a 24-well culture plate, 1 mL per well, incubate for 3 hours in a cell culture incubator, shake once every 30 minutes, and allow the cells to fully adhere. Then, it was washed twice with the culture solution to remove unattached cells. The blank group was added with PBS, the positive group was added with the positive drug dexamethasone (Dex), the model group was not administered, to the experimental group was added low, medium and high three concentrations of mPEG-HM-1, and the culture was continued for 48 hours after the administration, 1000 r/min. Centrifuge for 15 min. The supernatant was taken as a sample for testing activity of IL-1β.
# (2) Determination of IL-1β content: using R&D mouse IL-1β enzyme-linked immunosorbent assay kit, according to the kit instructions as follows: respectively, the tested samples and different concentrations of standard products, sealed with sealing tape the reaction well and incubated at 37° C. for 90 min; the plate was washed four times; the biotinylated antibody working solution (100 μL/well) was added, and the reaction well was sealed with sealing paper, incubated at 37° c. for 60 min; the plate was washed four times; Add the enzyme conjugate working solution (100 μL/well), seal the reaction well with sealing paper, incubate at 37° C. for 30 min; wash the plate four times; add color reagent (100 μL/well), incubate at 37° C. 10-20 min, add stop solution (100 μL/well), mix and measure OD450 value.
# [3] = tested on: Pancreatic cancer tumor cells; experiment: MTT proliferation inhibition, pancreatic cancer cells; format: cell-based, human; design: concentration or dose not given beside the values; settings: 48 h
# Protocol: as §1, §2
# [4] = tested on: Head and neck cancer tumor cells; experiment: MTT proliferation inhibition, head and neck cancer cells; format: cell-based, human; design: concentration or dose not given beside the values; settings: 48 h
# Protocol: as §1, §2
# [5] = tested on: Cervical cancer tumor cells; experiment: MTT proliferation inhibition, cervical cancer cells; format: cell-based, human; design: concentration or dose not given beside the values; settings: 48 h
# Protocol: as §1, §2
# [6] = tested on: Bladder Cancer tumor cells; experiment: MTT proliferation inhibition, bladder cancer cells; format: cell-based, human; design: concentration or dose not given beside the values; settings: 48 h
# Protocol: as §1, §2
# [7] = tested on: Thyroid cancer tumor cells; experiment: MTT proliferation inhibition, thyroid cancer cells; format: cell-based, human; design: concentration or dose not given beside the values; settings: 48 h
# Protocol: as §1, §2
# [8] = tested on: Kidney cancer tumor cells; experiment: MTT proliferation inhibition, kidney cancer cells; format: cell-based, human; design: concentration or dose not given beside the values; settings: 48 h
# Protocol: as §1, §2
substance,measurement,setting,value
mPEG-SC40k-Arg-Gly-Ala-Asp-Arg-Ala-Gly-Gly-Gly-Gly-Arg-Gly-Asp ({mPEG‑SC 40 kDa}-RGADRAGGGGRGD) [mPEG-SC40k-HM-1],rate of growth inhibition,Melanoma tumor cells,68.73 ± 21.25%
same,rate of growth inhibition,[1],68.46 ± 13.19%
same,A570 nm/A630 nm,mouse spleen lymphocytes; 40 μg/mL,0.6212 ± 0.0972
same,Inhibition Rate of spleen lymphocyte proliferation,mouse spleen lymphocytes; 40 μg/mL,9.92%
same,A570 nm/A630 nm,mouse spleen lymphocytes; 80 μg/mL,0.5493 ± 0.1056
same,Inhibition Rate of spleen lymphocyte proliferation,mouse spleen lymphocytes; 80 μg/mL,20.34%
same,A570 nm/A630 nm,mouse spleen lymphocytes; 160 μg/mL,0.4794 ± 0.1214
same,Inhibition Rate of spleen lymphocyte proliferation,mouse spleen lymphocytes; 160 μg/mL,30.48%
same,rate of growth inhibition,Lung cancer tumor cells,51.32 ± 16.29%
same,IL-1β,[2]; 40 μg/mL,774.07 ± 15.32 pg/mL
same,Inhibition Rate of IL-1β production,[2]; 40 μg/mL,17.39%
same,IL-1β,[2]; 80 μg/mL,670.72 ± 16.71 pg/mL
same,Inhibition Rate of IL-1β production,[2]; 80 μg/mL,28.42%
same,IL-1β,[2]; 160 μg/mL,553.22 ± 10.82 pg/mL
same,Inhibition Rate of IL-1β production,[2]; 160 μg/mL,40.96%
same,rate of growth inhibition,[3],60.45 ± 17.25%
same,rate of growth inhibition,[4],43.22 ± 10.25%
same,rate of growth inhibition,[5],61.52 ± 15.11%
same,rate of growth inhibition,[6],48.69 ± 11.61%
same,rate of growth inhibition,[7],50.13 ± 14.21%
same,rate of growth inhibition,[8],62.23 ± 16.51%
mPEG-SC5k-Arg-Gly-Ala-Asp-Arg-Ala-Gly-Gly-Gly-Gly-Arg-Gly-Asp ({mPEG‑SC 5 kDa}-RGADRAGGGGRGD) [mPEG-SC5k-HM-1],rate of growth inhibition,Melanoma tumor cells,61.27 ± 18.13%
same,rate of growth inhibition,[1],60.81 ± 20.27%
same,A570 nm/A630 nm,mouse spleen lymphocytes; 5 μg/mL,0.6253 ± 0.0947
same,Inhibition Rate of spleen lymphocyte proliferation,mouse spleen lymphocytes; 5 μg/mL,9.32%
same,A570 nm/A630 nm,mouse spleen lymphocytes; 10 μg/mL,0.5480 ± 0.1081
same,Inhibition Rate of spleen lymphocyte proliferation,mouse spleen lymphocytes; 10 μg/mL,20.54%
same,A570 nm/A630 nm,mouse spleen lymphocytes; 20 μg/mL,0.4954 ± 0.1219
same,Inhibition Rate of spleen lymphocyte proliferation,mouse spleen lymphocytes; 20 μg/mL,28.16%
same,rate of growth inhibition,Lung cancer tumor cells,45.33 ± 12.67%
same,IL-1β,[2]; 5 μg/mL,762.83 ± 15.46 pg/mL
same,Inhibition Rate of IL-1β production,[2]; 5 μg/mL,18.59%
same,IL-1β,[2]; 10 μg/mL,678.12 ± 12.09 pg/mL
same,Inhibition Rate of IL-1β production,[2]; 10 μg/mL,27.63%
same,IL-1β,[2]; 20 μg/mL,561.18 ± 13.21 pg/mL
same,Inhibition Rate of IL-1β production,[2]; 20 μg/mL,40.11%
same,rate of growth inhibition,[3],51.37 ± 16.23%
same,rate of growth inhibition,[4],40.27 ± 11.36%
same,rate of growth inhibition,[5],51.11 ± 16.20%
same,rate of growth inhibition,[6],35.72 ± 11.52%
same,rate of growth inhibition,[7],39.23 ± 13.18%
same,rate of growth inhibition,[8],51.07 ± 12.45%
